Test system: differentiated human keratinocytes
Experiment: in vitro screening of desquamating activity (release of corneocytes, cellular detachment index, flow cytometer)
Assay type: cell-based
Settings: for % of activity with respect to the control composed of an identical culture in the absence of compound (cellular detachment index): compounds at 5 × 10^−5 M, difference between T60 and T0 (60 minutes after addition), corneocytes counted by flow cytometer
Protocol: This test of in vitro screening of an agent which is active with regard to desquamation was carried out on differentiated human keratinocytes. The principle of the test is based on the fact that desquamation induces the release of corneocytes. The desquamating power of the test product increases as the number of corneocytes released increases.
The protocol of the test was as follows: starting with biopsies of human skin, the keratinocytes obtained by separation from the epidermis were dissociated by enzymatic action with trypsin and were cultured at a concentration of 2×10^5 cell/ml. The growth and differentiation of the keratinocytes was obtained by culturing for 10 to 20 days in a specific medium. The activity of the test product was then evaluated after removal of the culture medium. To do this, two samples were taken at T0 and T60, that namely, before the addition of the product and 60 minutes after this addition. The samples thus taken were analyzed with a flow cytometer in order to count the population of corneocytes. The flow cytometer made it possible to distinguish the populations of corneocytes and of keratinocytes by treatment with acridine orange, which is specific for cellular DNA.
The cellular detachment index was determined by the difference between T60 and T0. The same measurement was carried out for a control not comprising test product, because the experiment inevitably produced the release of corneocytes, even in the absence of active principles.
The test was carried out with 10-hydroxy-2-decenoic acid at a concentration of 5×10^−5M.

O=C(O)C=CCCCCCCCO [10-Hydroxy-2-decenoic acid]
activity with regard to cellular detachment (5 × 10^−5 M, differentiated human keratinocytes): high
% of activity with respect to the control composed of an identical culture in the absence of compound (cellular detachment index): 110%

CCCCCCCC(=O)c1ccc(O)c(C(=O)O)c1 [Reference, 2-Hydroxy-5-octanoylbenzoic acid, reference compound]
% of activity with respect to the control composed of an identical culture in the absence of compound (cellular detachment index): 92%

From US6514507B2, “Hydroxydecenoic acid compounds for promoting desquamation/epidermal renewal of the skin and/or combating skin aging” (Societe L'Oreal S.A., priority 1998, dated 2003)
